Laboratory results: ChEMBL document CHEMBL1137625, “Phenylpiperidine-benzoxazinones as urotensin-II receptor antagonists: synthesis, SAR, and in vivo assessment” (Bioorg Med Chem Lett, 2007)
Activity calls are given as the source filed them. The rule behind the calls is not given here.

Legend:
Urotensin-2 receptor [1] = target: T1, Urotensin-2 receptor (Homo sapiens, UniProt Q9UKP6); test: Displacement of [125I]U2 from human UT receptor in RMS13 cells after 2.5 hrs; format: cell-based
T1 sequence (Q9UKP6 whole entry): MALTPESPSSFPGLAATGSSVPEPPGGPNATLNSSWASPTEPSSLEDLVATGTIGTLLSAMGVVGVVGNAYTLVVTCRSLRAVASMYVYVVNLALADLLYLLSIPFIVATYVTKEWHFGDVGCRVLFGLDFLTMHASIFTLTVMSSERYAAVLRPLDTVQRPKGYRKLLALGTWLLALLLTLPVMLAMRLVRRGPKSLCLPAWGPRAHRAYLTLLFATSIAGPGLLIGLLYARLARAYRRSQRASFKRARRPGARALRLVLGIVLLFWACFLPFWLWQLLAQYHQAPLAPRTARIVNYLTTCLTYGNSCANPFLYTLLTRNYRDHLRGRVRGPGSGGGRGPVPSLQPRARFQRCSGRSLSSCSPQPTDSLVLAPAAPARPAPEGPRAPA

Rattus norvegicus [2] = test: Decrease in U2-induced ear pinna temperature in iv dosed rat; format: functional, organism-based
[3] = Cmax in rat at 2 mg/kg, iv; format: ADME, organism-based; set-up: dose 2 mg/kg, route intravenous; conditions: in vivo
Urotensin-2 receptor [4] = target: T2, Urotensin-2 receptor (Rattus norvegicus, UniProt P49684); test: Antagonist activity at rat UT receptor transfected in CHOK1 cells assessed as calcium mobilization by FLIPR method; format: functional, cell-based, CHO-K1
T2 sequence (P49684 whole entry): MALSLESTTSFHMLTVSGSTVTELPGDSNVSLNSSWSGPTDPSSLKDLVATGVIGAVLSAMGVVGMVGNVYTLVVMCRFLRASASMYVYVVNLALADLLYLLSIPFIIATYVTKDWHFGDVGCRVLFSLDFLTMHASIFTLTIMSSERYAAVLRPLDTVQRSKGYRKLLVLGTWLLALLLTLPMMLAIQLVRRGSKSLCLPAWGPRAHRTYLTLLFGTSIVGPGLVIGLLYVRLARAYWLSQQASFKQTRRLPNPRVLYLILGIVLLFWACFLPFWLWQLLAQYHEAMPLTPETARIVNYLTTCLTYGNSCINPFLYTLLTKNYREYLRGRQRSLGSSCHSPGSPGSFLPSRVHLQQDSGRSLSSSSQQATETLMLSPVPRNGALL

[5] = Half life in rat at 2 mg/kg, iv; format: ADME, organism-based; set-up: dose 2 mg/kg, route intravenous; conditions: in vivo
Rattus norvegicus [6] = test: Effect on ear pinna temperature in sc dosed rat; format: functional, organism-based

Structure (SMILES) | Ki (Urotensin-2 receptor [1]) [nM] | IC50 (Urotensin-2 receptor [4]) [nM] | further results
O=C(NCC1CCN(C(=O)c2ccccc2)CC1)c1cc(Cl)ccc1C1CCN(CCN2C(=O)COc3ccccc32)CC1 | 160 | – | –
CN(CCCc1ccccc1)C(=O)C1(c2ccccc2)CCN(CCN2C(=O)COc3ccccc32)CC1 | – | 9100 | –
CN(CCc1ccccc1)C(=O)C1(c2ccccc2)CCN(CCN2C(=O)COc3ccccc32)CC1 | – | 12000 | –
O=C1COc2ccccc2N1CCN1CCC(C(=O)NCc2ccccc2)(c2ccccc2)CC1 | – | 43000 | –

The next lines start with results.

Ki (Urotensin-2 receptor [1]) [nM] | Structure (SMILES) | IC50 (Urotensin-2 receptor [4]) [nM] | further results
65 | CC(C)(C)OC(=O)N1CCN(CCNC(=O)c2cc(Cl)ccc2C2CCN(CCN3C(=O)COc4ccccc43)CC2)CC1 | 10 | Activity (Rattus norvegicus [2]): Active; Cmax [3]: 553 ng/mL; half-life [5]: 2.12 h; Activity (Rattus norvegicus [6]): inactive
27 | CC(C)(C)CC(=O)N1CCC(CNC(=O)c2cc(Cl)ccc2C2CCN(CCN3C(=O)COc4ccccc43)CC2)CC1 | – | –
77 | CC(C)(C)OC(=O)N1CCC(CCNC(=O)c2cc(Cl)ccc2C2CCN(CCN3C(=O)COc4ccccc43)CC2)CC1 | – | –
